Test results: US6759207B2, “Fluorogenic or fluorescent reporter molecules and their applications for whole-cell fluorescence screening assays for caspases and other enzymes and the use thereof” (Cytovia, Inc., priority 1997, dated 2004)
One block for each compound: values may come before it.

Tests used:
HL-60 cells = assay: Staining of apoptotic HL-60 cells by caspase-3 substrate (whole-cell assay, microscopy); format: cell-based; conditions: 50 μM Ac-DEVD-CHO; substrate 50 μM N-Ac-DEVD-N′-octyloxycarbonyl-R110
Procedure: The ability of N-Ac-DEVD-N′-octyloxycarbonyl-R110 SEQ ID NO:5 to detect caspase activation in intact cells was tested using apoptotic HL-60 and Jurkat cells. These whole-cell assays were carried out in two stages: 1) induction of apoptosis; 2) incubation with the substrate. For HL-60 cells, apoptosis was induced by treatment with 10 μg/ml vinblastine for 4 hours. Control samples were treated with DMSO. For Jurkat cells, apoptosis was induced by treatment with 500 ng/ml agonistic antiFas antibody for 2 hours. Control samples were treated with PBS. Following apoptosis induction, the cells were incubated with 50 μM N-Ac-DEVD-N′-octyloxycarbonyl-R110 SEQ ID NO:5 in caspase assay buffer (40 mM PIPES, pH 7.4; 100 mM NaCl; 10% sucrose; 1 mM EDTA; 10 mM DTT). The cells were than transferred to a glass microslide and viewed by epifluorescent illumination on a Nikon inverted microscope.

[1] = target: T1, recombinant human caspase-3 (Homo sapiens, UniProt P42574); assay: Cleavage of caspase-3 substrates by recombinant human caspase-3; format: biochemical; conditions: for Cleavage by Caspase-3: 10 μM or 50 μM substrate, 37° C.
T1 sequence (P42574 29-175 limits assumed): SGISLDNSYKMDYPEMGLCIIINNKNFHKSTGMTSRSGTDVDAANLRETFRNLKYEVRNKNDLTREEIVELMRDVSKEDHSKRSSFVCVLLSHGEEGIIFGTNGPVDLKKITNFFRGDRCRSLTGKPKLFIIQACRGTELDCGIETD
T1 sequence (P42574 176-277 limits assumed): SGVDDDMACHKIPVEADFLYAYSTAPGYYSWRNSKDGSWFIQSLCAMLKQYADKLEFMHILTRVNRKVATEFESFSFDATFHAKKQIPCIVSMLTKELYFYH
Procedure: (§1) The caspase substrates were assayed by recombinant caspase-3 and by lysates prepared from apoptotic HL-60 cells. The assays were carried out at 37° C. in 96-well plates in a 100 μL incubation containing 30 μL of caspase-3 preparation or cell lysate, 10 μM or 50 μM of the substrate, and caspase assay buffer (40 mM 1,4-piperazinebis(ethansulfonic acid) (PIPES, Aldrich Chemical Company) pH 7.2; 100 mM NaCl; 10% sucrose; 0.1% CHAPS; 1 mM EDTA; 10 mM DTT). At the end of the incubation period, the fluorescence was measured on a Bio-Tek FL500 fluorescence microplate reader using excitation and emission wavelengths of 485 and 530 nm, respectively. Two different controls were run: 1) an enzyme blank consisting of samples containing substrate, but without enzyme or cell lysate; 2) an inhibitor control, consisting of samples which contained the caspase inhibitor, Ac-DEVD-CHO (f.c., 10 μM).

[2] = system: apoptotic HL-60 cell lysates; assay: Cleavage of caspase-3 substrates by apoptotic HL-60 cell lysates; format: biochemical; conditions: 10 μM or 50 μM substrate, 37° C., vinblastine treated HL-60 cell lysates
Procedure: as §1

[3] = Fluorescence and stability of N-acetyl-Rhodamine 110 compared to Rhodamine 110 (fluorometric assay); format: physicochemical
Procedure: The activities of Rhodamine 110 and N-acetyl-Rhodamine 110 as fluorescent moieties for synthetic substrates were measured in a fluorometric assay. The fluorescent signal is read in a spectrofluorometer or in a fluorometric microtiter plate reader at excitation wavelength of 485 and emission 530. Using this assay, the relative fluorescent values were determined for the two fluorescent moieties.
Fluorescence was measured using the following buffer conditions: 100 mM HEPES pH 7.5, with 10% sucrose, 1% CHAPS, 5 mM glutathione, and 1-200 nM test compound. The assay for stability was typically carried out at 37° C. for 2 days.

recombinant ICE = target: T2, recombinant ICE (Homo sapiens, UniProt P29466); assay: Fluorometric enzyme assay, cleavage of substrate by recombinant ICE; format: biochemical; conditions: for ICE Vmax / Km: 1-100 μM substrate, 37° C.; for Km: NA = no activity observed at 1-100 μM substrate, 3 h incubation; for efficiency as substrate for ICE: summary of Table 4
T2 construct: made in house; host or cells: Sf9 insect cells, baculovirus vector
T2 sequence (P29466 120-297 limits assumed): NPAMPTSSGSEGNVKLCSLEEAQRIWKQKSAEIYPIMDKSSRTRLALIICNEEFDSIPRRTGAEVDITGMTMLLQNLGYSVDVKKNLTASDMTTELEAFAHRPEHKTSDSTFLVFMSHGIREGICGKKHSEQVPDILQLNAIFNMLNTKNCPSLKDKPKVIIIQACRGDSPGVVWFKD
T2 sequence (P29466 317-404 limits assumed): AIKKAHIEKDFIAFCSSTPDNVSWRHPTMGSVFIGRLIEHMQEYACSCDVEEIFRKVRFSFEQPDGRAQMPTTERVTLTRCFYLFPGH
Procedure: (§2) The activities of N-(Z-VD)-N′-acetyl-Rhodamine 110, N-(Z-VAD)-N′-acetyl-Rhodamine 110, N-(Z-DEVD)-N′-acetyl-Rhodamine 110 SEQ ID NO:5, N-(Z-YVAD)-N-acetyl-Rhodamine 110 SEQ ID NO:2, (Z-VAD)2-Rhodamine 110 and (Z-YVAD)2-Rhodamine 110 SEQ ID NO:2 as synthetic substrates for recombinant CPP32 and ICE were measured in a fluorometric enzyme assay. […] See, Webb, N. R. et al., “Expression of proteins using recombinant Baculovirus,” Techniques 2:173-188 (1990). Cleavage of the synthetic substrates by the enzyme results in a fluorescent signal which is read in a spectrofluorometer or in a fluorometric microtiter plate reader. Using this assay, the Km and Vmax values were determined for each substrate with either CPP32 or ICE.
(§3) CPP32 and ICE dependent substrate cleavage was measured using the following buffer conditions: 100 mM HEPES pH 7.5, with 10% sucrose, 1% CHAPS, 5 mM glutathione, and 1-100 μM test substrate. Nonspecific enzyme cleavage was determined with the use of the specific CPP32 and ICE inhibitors consisted of an oligomer with the sequence Asp-Glu-Val-Asp or Tyr-Val-Ala-Asp, respectively, with an aldehyde group conjugated to the C-terminus. The assay for enzyme activity was typically carried out at 37° C. for 60 minutes.

recombinant CPP32 = target: T3, recombinant CPP32 (Homo sapiens, UniProt P42574); assay: Fluorometric enzyme assay, cleavage of substrate by recombinant CPP32; format: biochemical; conditions: summary of Table 4
T3 construct: made in house; host or cells: Sf9 insect cells, baculovirus vector
T3 sequence (P42574 29-175 limits assumed): T1 sequence (P42574 29-175 limits assumed)
T3 sequence (P42574 176-277 limits assumed): T1 sequence (P42574 176-277 limits assumed)
Procedure: as §2, §3

[4] = listed as N-Z-EVD-N′-Ethoxycarbonyl-R110

Structure (SMILES): CC(=O)N[C@@H](CC(=O)O)C(=O)N[C@@H](CCC(=O)O)C(=O)N[C@H](C(=O)N[C@H](C=O)CC(=O)O)C(C)C [Ac-DEVD-CHO, reference compound]
- fluorescent signal of vinblastine-treated HL-60 cells with inhibitor added during the assay stage (HL-60 cells): almost no fluorescent signal

- Cleavage by Caspase-3 [1]: Good
Structure (SMILES): CCSC(=O)Nc1ccc2c(c1)Oc1cc(NC(=O)[C@H](CC(=O)O)NC(=O)[C@@H](NC(=O)[C@H](CCC(=O)O)NC(=O)[C@H](CC(=O)O)NC(C)=O)C(C)C)ccc1C21OC(=O)c2ccccc21 (stereo partly drawn) [N-Ac-DEVD-N′-(ethylthio)carbonyl-R110, N-(Ac-Asp-Glu-Val-Asp)-N′-(ethylthio)carbonyl-Rhodamine 110]
- Cleavage by Apoptotic Lysates [2]: Good

- ratio of fluorescent signal (Rhodamine 110/N-acetyl Rhodamine 110) ([3]; after two days incubation at 37° C.): 10.1
- ratio of fluorescent signal (Rhodamine 110/N-acetyl Rhodamine 110) ([3]; time zero, excitation 485, emission 530, HEPES pH 7.5 buffer): 10.2
Structure (SMILES): CC(=O)Nc1ccc2c(c1)Oc1cc(N)ccc1C21OC(=O)c2ccccc21 (stereo not drawn) [N-acetyl Rhodamine 110, N-Acetyl-Rhodamine 110]
- stability and efficiency as fluorescent indicator ([3]; 37° C. for 2 days): stable and efficient fluorescent indicator

- Cleavage by Caspase-3 [1]: Good
Structure (SMILES): CCCCCCOC(=O)Nc1ccc2c(c1)Oc1cc(NC(=O)[C@H](CC(=O)O)NC(=O)[C@@H](NC(=O)[C@H](CCC(=O)O)NC(=O)[C@H](CC(=O)O)NC(C)=O)C(C)C)ccc1C21OC(=O)c2ccccc21 (stereo partly drawn) [N-Ac-DEVD-N′-hexyloxycarbonyl-R110, N-(Ac-Asp-Glu-Val-Asp)-N′-hexyloxycarbonyl-Rhodamine-110]
- Cleavage by Apoptotic Lysates [2]: Good

- Cleavage by Caspase-3 [1]: the signal was low and Poor
- amount of recombinant caspase-3 required for cleavage relative to tri- and tetrapeptide substrates ([1]; FIG. 2A): 50 fold
Structure (SMILES): CCOC(=O)Nc1ccc2c(c1)Oc1cc(NC(=O)[C@H](CC(=O)O)NC(=O)[C@@H](NC(=O)OCc3ccccc3)C(C)C)ccc1C21OC(=O)c2ccccc21 (stereo partly drawn) [N-Z-VD-N′-ethoxycarbonyl-R110, N-(Cbz-Val-Asp)-N′-Ethoxycarbonyl-Rhodamine 110]
- Cleavage by Apoptotic Lysates [2]: Poor

- Cleavage by Caspase-3 [1]: Good
Structure (SMILES): CCOC(=O)Nc1ccc2c(c1)Oc1cc(NC(=O)[C@H](CC(=O)O)NC(=O)[C@@H](NC(=O)[C@H](CCC(=O)O)NC(=O)[C@H](CC(=O)O)NC(C)=O)C(C)C)ccc1C21OC(=O)c2ccccc21 (stereo partly drawn) [N-Ac-DEVD-N′-ethoxycarbonyl-R110, N-(Ac-Asp-Glu-Val-Asp)-N′-ethoxycarbonyl-Rhodamine 110]
- Cleavage by Apoptotic Lysates [2]: Good

- Cleavage by Caspase-3 [1]: Good
Structure (SMILES): CCOC(=O)Nc1ccc2c(c1)Oc1cc(NC(=O)[C@H](CC(=O)O)NC(=O)[C@@H](NC(=O)[C@H](CCC(=O)O)NC(=O)[C@H](CC(=O)O)NC(=O)OCc3ccccc3)C(C)C)ccc1C21OC(=O)c2ccccc21 (stereo partly drawn) [N-Z-DEVD-N′-ethoxycarbonyl-R110, N-(Cbz-Asp-Glu-Val-Asp)-N′-ethoxycarbonyl-Rhodamine 110]
- Cleavage by Apoptotic Lysates [2]: Good

- ICE Vmax (recombinant ICE): 14 nmol/min
- Km (recombinant ICE): 6 µM
- efficiency as substrate for ICE (recombinant ICE): efficient substrates
- efficiency as substrate for CPP32 (recombinant CPP32): not for CPP32
Structure (SMILES): CC(C)[C@H](NC(=O)[C@H](Cc1ccc(O)cc1)NC(=O)OCc1ccccc1)C(=O)N[C@@H](C)C(=O)N[C@@H](CC(=O)O)C(=O)Nc1ccc2c(c1)Oc1cc(NC(=O)[C@H](CC(=O)O)NC(=O)[C@H](C)NC(=O)[C@@H](NC(=O)[C@H](Cc3ccc(O)cc3)NC(=O)OCc3ccccc3)C(C)C)ccc1C21OC(=O)c2ccccc21 [(Z-YVAD)2-Rhodamine 110, (Z-Tyr-Val-Ala-Asp)2-Rhodamine 110]

- Cleavage by Caspase-3 [1]: Fair
- Cleavage by Caspase-3 [1, 4]: cleaved efficiently
Structure (SMILES): CCOC(=O)Nc1ccc2c(c1)Oc1cc(NC(=O)C(CC(=O)O)NC(=O)C(NC(=O)C(CCC(=O)O)NC(=O)OCc3ccccc3)C(C)C)ccc1C21OC(=O)c2ccccc21 (stereo not drawn) [N-Z-EVD-N′-ethoxycarbonyl-R110]
- Cleavage by Apoptotic Lysates [2]: Fair
- Cleavage by Apoptotic Lysates [2, 4]: cleaved efficiently

- ICE Vmax (recombinant ICE): 9 nmol/min
- Km (recombinant ICE): 21 µM
- efficiency as substrate for ICE (recombinant ICE): efficient substrates
- efficiency as substrate for CPP32 (recombinant CPP32): not for CPP32
Structure (SMILES): CC(C)[C@H](NC(=O)OCc1ccccc1)C(=O)N[C@@H](C)C(=O)N[C@@H](CC(=O)O)C(=O)Nc1ccc2c(c1)Oc1cc(NC(=O)[C@H](CC(=O)O)NC(=O)[C@H](C)NC(=O)[C@@H](NC(=O)OCc3ccccc3)C(C)C)ccc1C21OC(=O)c2ccccc21 [(Z-VAD)2-Rhodamine 110, (Z-Val-Ala-Asp)2-Rhodamine 110]
